Data taken from patent US20060269529A1, “Modified t lymphocytes and uses therefor” (priority 2002, published 2006).

Legend:
[1] = Toxicity observations in treated tumor-bearing mice; type: in vivo; details: TNP-470 alone
Method: (§1) On day 0, tumor cells were implanted into the subcutaneous space on the right flank of recipient mice. On the days of treatment, CTLs (4 to 7 post-transduction) were harvested, washed, resuspended in cold PBS, and injected in a volume of 300 μl into the retro-orbital venous plexus. […] TNP-470 (TAP Holdings Inc., Deerfield, Ill.) (30 mg/kg) was injected subcutaneously (into a site remote from the tumor) every other day in 0.3 ml PBS starting with the first day of CTL therapy. Starting volumes of tumors ranged from 40 to 80 mm^3. All mice were sacrificed when control mice reached a mean tumor volume of 2,000 mm^3 or had extensive tumor ulceration.

T241 fibrosarcomas = assay: Adoptive transfer, T241 tumors in C57BL/6 mice; type: in vivo; details: combination study, TNP-470 30 mg/kg s.c. every other day, daily IL-2, FIG. 5C
Method: as §1

B16.F10 murine melanomas = assay: Adoptive transfer, subcutaneous B16.F10 tumors in C57BL/6 mice; type: in vivo; details: combination study, TNP-470 30 mg/kg s.c. every other day, daily IL-2, FIG. 5B
Method: as §1, with “mm^3.” for “mm^3. All mice were sacrificed when control mice reached a mean tumor volume of 2,000 mm^3 or had extensive tumor ulceration.”

[2] = test system: CT26 murine colon adenocarcinomas; assay: Adoptive transfer, subcutaneous CT26 tumors in BALB/c mice; type: in vivo; details: combination study, TNP-470 30 mg/kg s.c. every other day, daily IL-2, FIG. 5A
Method: as §1, with “mm^3.” for “mm^3. All mice were sacrificed when control mice reached a mean tumor volume of 2,000 mm^3 or had extensive tumor ulceration.”

Flk-1 = Flk-1 (Mus musculus, UniProt P35918); details: Millauer 1993; Quinn 1993; cited from earlier work
human KDR-Fc (VEGFR2) = biological target: T1, human KDR-Fc (VEGFR2) (Homo sapiens, UniProt P35968); type: binding
T1 construct: purchased R & D Systems
Method: High-titer retrovirus encoding the gene for a soluble form of Flk-1, Flk-Fc, were used to infect 293T cells. Conditioned medium from these transduced cells was collected and subjected to Western blot analysis by using either antibody directed against Flk-1 or ^125I-labeled protein A to confirm the presence of both the Flk-1 and Fc portions of the fusion protein. For FACS analysis of HeLa-VEGF-cTcR cells, 2 ml of conditioned medium from these transduced cells or control media from untransduced 293T cells was used as the primary reagent. The cells were then washed and incubated with anti-mouse IgG2a-PE (Chemicon) and analyzed. For the VEGF-cTcR/KDR-Fc binding study, VEGF-cTcR clone 2 cells were incubated with increasing amounts of human KDR-Fc (R & D Systems), washed twice with PBS, and stained with anti-human IgG1-FITC antibody. For analysis of transduced CTLs, cells were incubated successively with anti-human c-Myc antibody, biotinylated anti-mouse IgG, and streptavidin-PE or only with anti-mouse CD8 antibody conjugated to FITC (Pharmingen).

T1 sequence (P35968 20-764 limits assumed): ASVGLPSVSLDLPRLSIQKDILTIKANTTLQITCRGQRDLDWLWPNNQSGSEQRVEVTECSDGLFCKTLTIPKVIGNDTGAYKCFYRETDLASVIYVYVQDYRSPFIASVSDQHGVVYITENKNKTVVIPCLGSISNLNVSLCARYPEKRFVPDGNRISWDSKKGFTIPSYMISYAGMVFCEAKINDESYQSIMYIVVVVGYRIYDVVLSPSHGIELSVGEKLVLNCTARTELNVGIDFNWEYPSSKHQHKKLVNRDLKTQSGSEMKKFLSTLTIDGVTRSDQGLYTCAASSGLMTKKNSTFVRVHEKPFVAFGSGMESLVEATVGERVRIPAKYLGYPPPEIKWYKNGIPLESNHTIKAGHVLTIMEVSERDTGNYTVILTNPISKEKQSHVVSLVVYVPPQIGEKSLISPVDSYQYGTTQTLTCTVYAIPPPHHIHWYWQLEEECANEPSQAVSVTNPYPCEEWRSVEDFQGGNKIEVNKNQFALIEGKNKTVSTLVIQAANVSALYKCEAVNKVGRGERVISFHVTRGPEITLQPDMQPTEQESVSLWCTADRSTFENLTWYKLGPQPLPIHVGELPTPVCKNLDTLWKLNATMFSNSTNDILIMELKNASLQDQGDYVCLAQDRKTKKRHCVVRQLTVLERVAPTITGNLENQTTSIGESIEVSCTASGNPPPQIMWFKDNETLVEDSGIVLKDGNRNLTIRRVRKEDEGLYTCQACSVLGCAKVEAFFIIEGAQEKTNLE
Flk-1, sequence (P35918 20-1345): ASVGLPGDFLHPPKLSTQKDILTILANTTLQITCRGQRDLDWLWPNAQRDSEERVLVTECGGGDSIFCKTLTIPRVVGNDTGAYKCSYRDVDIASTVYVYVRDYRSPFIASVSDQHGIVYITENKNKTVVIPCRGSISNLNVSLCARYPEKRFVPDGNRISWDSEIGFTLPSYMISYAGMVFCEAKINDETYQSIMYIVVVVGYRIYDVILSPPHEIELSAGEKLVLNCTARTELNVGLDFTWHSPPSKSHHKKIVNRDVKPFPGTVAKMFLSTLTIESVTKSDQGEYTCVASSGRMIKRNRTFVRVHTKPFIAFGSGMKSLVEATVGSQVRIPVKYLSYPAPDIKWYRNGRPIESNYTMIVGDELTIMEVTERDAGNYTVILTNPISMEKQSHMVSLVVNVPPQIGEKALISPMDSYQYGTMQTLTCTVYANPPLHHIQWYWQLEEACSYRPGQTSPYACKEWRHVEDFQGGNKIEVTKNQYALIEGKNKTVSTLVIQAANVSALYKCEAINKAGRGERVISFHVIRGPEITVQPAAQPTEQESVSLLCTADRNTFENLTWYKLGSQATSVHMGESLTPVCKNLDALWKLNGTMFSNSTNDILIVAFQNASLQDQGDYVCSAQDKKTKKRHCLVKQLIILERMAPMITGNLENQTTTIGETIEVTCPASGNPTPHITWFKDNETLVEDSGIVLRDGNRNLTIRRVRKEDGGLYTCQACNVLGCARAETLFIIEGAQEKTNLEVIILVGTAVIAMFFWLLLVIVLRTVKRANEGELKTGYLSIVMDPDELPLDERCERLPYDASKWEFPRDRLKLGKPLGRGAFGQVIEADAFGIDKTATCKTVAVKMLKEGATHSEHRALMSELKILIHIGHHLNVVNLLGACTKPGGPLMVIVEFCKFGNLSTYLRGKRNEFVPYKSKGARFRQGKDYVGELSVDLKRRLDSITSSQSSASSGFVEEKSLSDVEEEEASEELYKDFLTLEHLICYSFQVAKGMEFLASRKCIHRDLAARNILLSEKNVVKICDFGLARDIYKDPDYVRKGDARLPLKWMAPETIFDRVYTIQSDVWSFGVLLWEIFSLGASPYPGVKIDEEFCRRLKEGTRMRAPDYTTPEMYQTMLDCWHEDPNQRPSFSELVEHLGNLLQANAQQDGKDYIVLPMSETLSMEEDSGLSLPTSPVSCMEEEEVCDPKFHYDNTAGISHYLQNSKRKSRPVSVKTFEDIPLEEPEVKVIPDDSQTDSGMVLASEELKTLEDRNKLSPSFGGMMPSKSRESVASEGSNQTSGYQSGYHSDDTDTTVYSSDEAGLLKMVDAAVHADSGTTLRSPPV

Compound: CO[C@@H]1[C@H](OC(=O)NC(=O)CCl)CC[C@]2(CO2)[C@H]1[C@@]1(C)O[C@@H]1CC=C(C)C [TNP-470]
- weight loss ([1]; 30 mg/kg s.c. every other day): up to 10 % of total body weight
- reaction at the TNP-470 injection site ([1]; occasionally): mild skin breakdown
- inhibition of T241 fibrosarcoma growth (T241 fibrosarcomas): 73%
- inhibition of B16.F10 melanoma growth (B16.F10 murine melanomas): 71%
- inhibition of CT26 adenocarcinoma growth [2]: 70%

Compound: VEGF
- binding affinity reported for association of native VEGF and Flk-1 (Flk-1): 0.1 to 0.5 nM
- inhibition of KDR-Fc binding to VEGF-cTcR clone 2 cells (human KDR-Fc (VEGFR2)): inhibited in a dose-dependent manner
